Common to all, as to assay type: in vivo
Data set [1] relates to Green Peach Aphid (Myzus persicae). The experiment in a line: Insecticidal effect on green peach aphid, foliar spray on potted Chinese cabbage (Test Example 1). The conditions noted are these: 500 ppm liquid chemical, sprayed on Chinese cabbage stalks and leaves, six days after the spraying. From the text:
Insecticidal Effect on Green Peach Aphid (Myzus persicae)
A Chinese cabbage plant was planted in each of plastic pots with a diameter of 8 cm and a height of 8 cm, and green peach aphids were propagated on the plant, after which the parasites in each pot were counted. A preparation containing each compound of the present invention listed in Tables 2 to 4 or each comparative compound as an active ingredient was dispersed in and diluted with water to obtain a 500 ppm liquid chemical. The stalks and leaves of the potted Chinese cabbage plants were sprayed with the liquid chemical and air-dried, and then the pots were stored in a greenhouse. Six days after the spraying, green peach aphids parasitic on each Chinese cabbage plant were counted and the control efficacy was calculated by the following equation, whereby the insecticidal effect was judged according to the criterion shown below. Control efficacy=100−{(T×Ca)/(Ta×C)}×100 • Ta: number of parasites before spraying in treated group, • T: number of parasites after spraying in treated group, • Ca: number of parasites before spraying in untreated group, • C: number of parasites after spraying in untreated group.

Data set [2] deals with Greenhouse Whitefly (Trialeuroddes vaporariorum). Nature of the data set: Insecticidal effect on greenhouse whitefly, sprayed tomato leaf (Test Examples 2 and 4). The conditions noted are these: 100 ppm liquid chemical, sprayed tomato leaf, 20 adult whiteflies, four days after the inoculation. From the text: Insecticidal Effect on Greenhouse Whitefly (Trialeuroddes vaporariorum)
A preparation containing each compound of the present invention listed in Tables 2 to 4 or each comparative compound as an active ingredient was dispersed in and diluted with water to obtain a 100 ppm liquid chemical. A tomato leaf set in a 20-ml vial with its stalk immersed in water was sprayed with the liquid chemical with a spray gun on a turntable. After air-dryness, the treated leaf was placed in a glass cylinder and inoculated with 20 adult greenhouse whiteflies. After the treatment, the glass cylinder was placed in a greenhouse. Four days after the inoculation, the living insects were counted. The corrected mortality was calculated according to the following equation and the insecticidal effect was judged according to the criterion shown below.
[formula] Criterion for Judgment:
Insecticidal Effect on Greenhouse (Trialeuroddes vaporariorum) at a Low Dosage
The same test as in Test Example 2 was carried out except for changing the concentration of the liquid chemical to 3 ppm.

Data set [3] concerns White Peach Scale (Pseudaulacaspis pentagona). Nature of the data set: Insecticidal effect on white peach scale, sprayed potato tuber (Test Examples 3 and 5). The settings on record: 100 ppm liquid chemical, potato tuber with first-instar larvae, fourteen days after the treatment. From the text: Insecticidal Effect on White Peach Scale (Pseudaulacaspis pentagona)
A preparation containing each compound of the present invention listed in Tables 2 to 4 or each comparative compound as an active ingredient was dispersed in and diluted with water to obtain a 100 ppm liquid chemical. A potato tuber with first-instar larvae of white peach scale as parasites was sprayed with the liquid chemical with a spray gun. Fourteen days after the treatment, the living insects were counted. In the same manner as in Test Example 2, the corrected mortality was calculated and the insecticidal effect was judged.
Insecticidal Effect on White Peach Scale (Pseudaulacaspis pentagona) at a Low Dosage
The same test as in Test Example 3 was carried out except for changing the concentration of the liquid chemical to 30 ppm.

Experimental findings from patent US8034931B2, “Process for producing substituted aminoquinazolinone derivative, intermediate therefor, and pest control agent” (Nihon Nohyaku Co., Ltd., priority 2003, dated 2011) are described below.

The structures appear in SMILES notation.

Turning to `CCOCN1C(=O)N(N=Cc2cccnc2)Cc2cc(C(F)(C(F)(F)F)C(F)(F)F)ccc21` [compound 5], in data set [1], the “Test Example 1: insecticidal effect (control efficacy)” value (“Test Example 1: insecticidal effect” below) was “A (Control efficacy 100%)”. Also, in data set [2], the “Test Example 2: insecticidal effect (corrected mortality)” value (“Test Example 2: insecticidal effect” for short) is listed as “A (Corrected mortality 100%)”. The “Test Example 3: insecticidal effect (corrected mortality)” value (shortened to “Test Example 3: insecticidal effect”) in data set [3] is listed as “A (Corrected mortality 100%)”.

As for `COCC(=O)N1C(=O)N(N=Cc2cccnc2)Cc2cc(C(F)(C(F)(F)F)C(F)(F)F)ccc21` [compound 15], the “Test Example 1: insecticidal effect” value in data set [1] is “A (Control efficacy 100%)”. Also, the “Test Example 2: insecticidal effect” value in data set [2] is listed as “A (Corrected mortality 100%)”. The “Test Example 3: insecticidal effect” value in data set [3] is reported as “A (Corrected mortality 100%)”.

As to `CCC(C)C(=O)N1C(=O)N(N=Cc2cccnc2)Cc2cc(C(F)(C(F)(F)F)C(F)(F)F)ccc21` (stereo not drawn) [compound 13], the “Test Example 1: insecticidal effect” value in data set [1] is reported as “A (Control efficacy 100%)”. Moreover, the “Test Example 2: insecticidal effect” value in data set [2] was “A (Corrected mortality 100%)”. Further, the “Test Example 3: insecticidal effect” value in data set [3] is recorded as “A (Corrected mortality 100%)”.

With `COC(=O)N1C(=O)N(N=Cc2cccnc2)Cc2cc(C(F)(C(F)(F)F)C(F)(F)F)ccc21` [compound 16], in data set [1], the “Test Example 1: insecticidal effect” value was “A (Control efficacy 100%)”. Besides, the “Test Example 2: insecticidal effect” value in data set [2] is “A (Corrected mortality 100%)”. Further, the “Test Example 3: insecticidal effect” value in data set [3] was “A (Corrected mortality 100%)”.

Regarding `CCS(=O)(=O)N1C(=O)N(N=Cc2cccnc2)Cc2cc(C(F)(C(F)(F)F)C(F)(F)F)ccc21` [compound 23], the “Test Example 1: insecticidal effect” value in data set [1] was “A (Control efficacy 100%)”. The “Test Example 2: insecticidal effect” value in data set [2] is reported as “A (Corrected mortality 100%)”. The “Test Example 3: insecticidal effect” value in data set [3] is reported as “A (Corrected mortality 100%)”.

Turning to `O=C(c1cccc2ccccc12)N1C(=O)N(N=Cc2cccnc2)Cc2cc(C(F)(C(F)(F)F)C(F)(F)F)ccc21` [compound No. 33], the “Test Example 1: insecticidal effect” value in data set [1] is recorded as “A (Control efficacy 100%)”. Moreover, the “Test Example 2: insecticidal effect” value in data set [2] is given as “A (Corrected mortality 100%)”. The “Test Example 3: insecticidal effect” value in data set [3] was “A (Corrected mortality 100%)”.
